Assay results as given in patent publication US11058756B2, “Compositions and methods of treating autoimmune disease by reducing enterococcus” (YALE UNIVERSITY, priority 2017, dated 2021).

Legend:
AhR = target: T1, AhR (Mus musculus, UniProt P30561); test: AhR antagonist experiment in E. gallinarum-gavaged (NZWxBXSB)F1 mice; format: in vivo; settings: 4 weeks; for Th17-inducing effects of E. gallinarum (MLN Th17 cell frequency): CH223191 i.p. 300 μg/mouse/day, 5 days a week, ABX-pretreated, E. gallinarum gavaged, FIG. 20; for autoantibodies-inducing effects of E. gallinarum (serum anti-RNA and anti-dsDNA IgG): CH223191 i.p. 5 days a week, FIG. 4O-4P
T1 construct: mice were injected i.p. with 300 mg of CH223191 (a selective AhR antagonist; Sigma-Aldrich) or mock 5 days a week; from tissue; host or cells: whole animal: (NZWxBXSB)F1 hybrid mice
T1 sequence (P30561 10-848): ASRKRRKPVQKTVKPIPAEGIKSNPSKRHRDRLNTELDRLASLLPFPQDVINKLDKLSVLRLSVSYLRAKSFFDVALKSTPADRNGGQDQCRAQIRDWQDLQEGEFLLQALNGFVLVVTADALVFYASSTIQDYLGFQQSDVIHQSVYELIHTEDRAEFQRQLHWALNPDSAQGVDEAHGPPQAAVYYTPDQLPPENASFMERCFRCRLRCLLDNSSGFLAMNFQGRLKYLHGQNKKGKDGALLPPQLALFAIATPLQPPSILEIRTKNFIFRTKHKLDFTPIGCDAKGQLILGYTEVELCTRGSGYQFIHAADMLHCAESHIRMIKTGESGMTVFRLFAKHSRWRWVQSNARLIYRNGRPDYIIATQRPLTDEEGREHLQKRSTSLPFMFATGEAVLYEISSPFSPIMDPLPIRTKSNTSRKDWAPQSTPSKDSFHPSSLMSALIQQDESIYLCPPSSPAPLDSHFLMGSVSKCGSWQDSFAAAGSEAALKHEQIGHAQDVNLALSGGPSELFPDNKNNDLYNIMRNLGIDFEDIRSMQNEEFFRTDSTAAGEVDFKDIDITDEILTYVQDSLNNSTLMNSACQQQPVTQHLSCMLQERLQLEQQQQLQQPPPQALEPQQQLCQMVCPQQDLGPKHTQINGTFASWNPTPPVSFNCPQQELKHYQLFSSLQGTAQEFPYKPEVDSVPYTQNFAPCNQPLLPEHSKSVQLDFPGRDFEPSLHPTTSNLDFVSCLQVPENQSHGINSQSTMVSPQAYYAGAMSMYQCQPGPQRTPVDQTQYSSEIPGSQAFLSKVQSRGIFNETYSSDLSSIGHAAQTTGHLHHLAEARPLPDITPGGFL
Description: (§1) Serum antibodies specific for dsDNA and b2GPI were determined using standardized ELISAs (anti-dsDNA antibody, Abcam; and, Mouse/Rat Apolipoprotein H Antibody, R&D Systems; respectively). Anti-RNA was determined by ELISA using defined positive controls (Human/Mouse RNA Polymerase II Antibody, R&D systems). Anti-ERV gp70 ICs and ERV gp70 protein were determined by OD450 signal comparisons (Evans et al., 1990, J Virol, 64, 6176-6183). For anti-dsDNA ELISAs, DNA-BIND™ (Corning) plates were coated with 100 μg/ml salmon sperm DNA (Fisher Scientific) and blocked in 0.1M PBS, 3.0% BSA, 5.0% FBS. The serum was diluted 1:1000 for the assay and incubated for 1 hour at 37° C. Wells were washed and incubated for 1 hour at 37° C. with rabbit anti-mouse IgG (Fisher Scientific) conjugated to HRP and developed with TMB substrate solution. 2M sulfuric acid (Sigma) solution was used to stop development. The concentration of anti-dsDNA was determined by reading the absorbance at 450 nm/570 nm reference.
(§2) For anti-RNA ELISAs, DNA-BIND™ (Corning) plates were coated with […] yeast RNA (Ambion) and blocked in 0.1M PBS, 0.05% Tween-20, 5.0% FBS. The serum was diluted 1:1000 for the assay and incubated for 1 hour at 37° C. Wells were washed and incubated for 1 hour at 37° C. with rabbit anti-mouse IgG (Fisher Scientific) conjugated to HRP and developed with TMB substrate solution. 2M sulfuric acid (Sigma) solution was used to stop development. The concentration of anti-RNA IgG was determined by reading the absorbance at 450 nm/570 nm reference.
For direct ex vivo intracellular cytokine detection, cells isolated from small intestinal lamina propria, MLN or spleen were immediately treated with GolgiStop (BD Bioscience) and surface-stained in FACS buffer (PBS, 2% bovine serum albumin, 0.2 mg of sodium azide, 2 mM EDTA) for 30 minutes in the dark at room temperature with fluorescently conjugated antibodies specific for CD3, CD4, CD11b, CD11c, CD44, CD62L, CD19, CD45, CD45R (B220), CXCR5, GITR, IL-17, IFN-g, Ly6C, NK1.1, PDCA-1, PD-1 and PSGL-1. After staining for surface antigens, some B cells and T cells were stained for intracellular cytokines using intracellular cytokine fixation buffer (eBioscience) and fluorescently conjugated antibodies specific for IL-17, IFN-g and FoxP3 (eBioscience) for 30 minutes in the dark at room temperature. Cell viability was assessed with Zombie NIR Fixable Viability Kit (BioLegend).
(NZWxBXSB)F1 mice were treated with broad-spectrum antibiotics (vancomycin, ampicillin, neomycin and metronidazole) from 10 weeks to 14 weeks of age. 24 hours later mice were gavaged with E. gallinarum every week for 4 weeks. […]

(NZWxBXSB)F1 mice [1] = test: Serum ELISAs for anti-dsDNA, anti-RNA, anti-β2GPI IgG, ERV gp70 protein and anti-ERV gp70 immune complexes; format: in vivo, mouse; settings: single antibiotic in drinking water; 16 weeks of age; FIG. 1B-1C
Description: (§3) Mice were cohoused for 3 to 4 weeks before antibiotic treatment to allow for equilibration of the microbiota. Single antibiotic or broad-spectrum antibiotic administration consisted of metronidazole (1 g/liter; Fisher Scientific), neomycin (1 g/liter; Fisher Scientific), ampicillin (1 g/liter; Sigma) and vancomycin (0.5 g/liter; Acros Organics) in the drinking water for up to 22 weeks or a targeted regiment for 2 weeks and then replaced with regular water for the duration of the experiment. For broad-spectrum antibiotic experiments (vancomycin, ampicillin, metronidazole, and neomycin combined), sweetener (Equal, 4 g/L) was added to both the antibiotics and control water due to the metallic taste of metronidazole. Twenty-four hours after cessation of antibiotic water, mice were administered 1×10^6 CFUs of vancomycin-resistant E. gallinarum via oral gavage, isolated from liver tissue of a vancomycin-treated mouse that continued to show signs of autoimmune disease (high-level resistance was confirmed by vanC gene PCR). E. gallinarum was grown at 37° C. in Gifu Anaerobic Broth (HIMEDIA Laboratories) to early stationary phase under anaerobic conditions (82% N2, 15% CO2, 3% H2 by volume) in an anaerobic chamber and diluted in PBS to 10^7 CFUs.
as §1, §2
For anti-b2GPI ELISAs, Corning® 96-well EIA/RIA easy Wash™ clear flat-bottom polystyrene high-bind microplates were coated with […] recombinant b2GPI/ApoH (R&D Systems) and blocked in Pierce Protein-Free (PBS) Blocking Buffer (Thermo Scientific). The serum was diluted 1:100 for the assay and incubated at room temperature for 2 hours on a shaker. Wells were washed and incubated while shaking for 30 minutes at room temperature with goat anti-mouse IgG (Fisher Scientific) conjugated to HRP and developed with TMB substrate solution. 2M sulfuric acid (Sigma) solution was used to stop development. The concentration of anti-b2GPI was determined by reading the absorbance at 450 nm/650 nm reference. […]

(NZWxBXSB)F1 mice [2] = test: Oral antibiotics in drinking water: mortality, clinical outcome, proteinuria and organ histology in the autoimmune hybrid model; format: in vivo, mouse
Description: 6-week-old male (NZWxBXSB)F1 mice and C57BL/6J mice were used in this study except if noted otherwise. (NZWxBXSB)F1 were bred by mating NZW/LaJ females with BXSB/MpJ males obtained from Jackson Laboratory (Bar Harbor, Me., USA). Parental littermates of (NZWxBXSB)F1 were randomly mixed with littermates from other parental cages 21 days after birth to equilibrate the microbiomes from different cages and parental origin. All mice were maintained in a specific-pathogen-free environment. (NZWxBXSB)F1 mice were provided with water and a standard laboratory diet ad libitum (2018 Harlan Teklad, South Easton, Mass., USA). They were supplied with hardwood chips as bedding and were housed in a temperature-controlled, air-conditioned room on a 12-hr light-dark cycle. Germ-free (GF) C57BL/6 mice were kept under sterile conditions in CBC's (Class Biologically Clean, Madison, Wis., USA) Quad flexible film isolators (Softwall), exposed to a 12-hr light/dark cycle and provided standard, autoclaved tap water and mouse chow (2018S Harlan Teklad, South Easton, Mass., USA) ad libitum. To exclude a Th17 bias, a PCR for segmented filamentous bacteria (SFB) was performed on fecal DNA from all mice involving Th17 studies. Fecal SFB detection at 6-8 weeks of age that correlates with ileal SFB colonization was performed as described (Barman et al., 2008, Infect Immun, 76, 907-915; Kriegel et al., 2011, Proc Natl Acad Sci USA, 108, 11548-11553). All Th17 data was derived from SFB-negative animals.
as §3
Samples were obtained at autopsy and fixed in 10% neutral formalin, and histological sections were stained with hematoxylin and eosin (H&E) and scored in a blinded fashion. Glomerulonephritis was scored on a scale of 0-4 based on the intensity and extent of histopathological changes (Klopfleisch, 2013, BMC Vet Res, 9, 123). A grade of 0 was given to kidneys without glomerular lesions; grade 1 consisted of minimal thickening of the mesangium; grade 2 contained noticeable increases in both mesangial and glomerular cellularity; grade 3 was characterized by the preceding conditions with superimposed inflammatory exudates and capsular adhesions; and grade 4 consisted of obliterated glomerular architecture in greater than 70% of glomeruli. […]

E. gallinarum = test: Assessment of bacterial translocation and tissue burden (anaerobic tissue cultures, CFU); format: in vivo, mouse; settings: (NZWxBXSB)F1 mice, antibiotics in drinking water; 16-18 weeks of age; FIG. 1K-1N
Description: Mice were cohoused for 3 to 4 weeks before antibiotic treatment to allow for equilibration of the microbiota. Single antibiotic or broad-spectrum antibiotic administration consisted of metronidazole (1 g/liter; Fisher Scientific), neomycin (1 g/liter; Fisher Scientific), ampicillin (1 g/liter; Sigma) and vancomycin (0.5 g/liter; Acros Organics) in the drinking water for up to 22 weeks or a targeted regiment for 2 weeks and then replaced with regular water for the duration of the experiment. For broad-spectrum antibiotic experiments (vancomycin, ampicillin, metronidazole, and neomycin combined), sweetener (Equal, 4 g/L) was added to both the antibiotics and control water due to the metallic taste of metronidazole. […] E. gallinarum was grown at 37° C. in Gifu Anaerobic Broth (HIMEDIA Laboratories) to early stationary phase under anaerobic conditions (82% N2, 15% CO2, 3% H2 by volume) in an anaerobic chamber and diluted in PBS to 10^7 CFUs.
14-, 16- and 18-week-old mice underwent sterile laparotomy and nose, mouth, small intestine (luminal and adherent fractions), mesenteric veins, mesenteric lymph nodes (MLN), liver and spleen were aseptically collected in BBL Mycoflask Thioglycollate (Fluid) Prepared Media (BD Diagnostic Systems) and incubated for 72 hours in anaerobic conditions at 37° C. Gifu Media Agar plates were streaked with the content from the BBL Mycoflask Thioglycollate and incubated for 48 hours in an anaerobic chamber at 37° C. Colony Formation Units (CFU) were counted and concentration determined per milligram of tissue. Single colonies were grown in Gifu anaerobic media for 48 hours in an anaerobic chamber at 37° C. and aliquots from each sample were collected and centrifuge for 10 minutes at 10000×g. DNA was extracted from bacterial pellets using DNeasy Blood and Tissue kit (Qiagen) and submitted to PCR amplification of the 16S region and Sanger sequencing. In addition, purified DNA was used for eubacterial, Enterococcus genus and Enterococcus gallinarum PCR assays.

[3] = listed as AHR-selective antagonist

`Cc1ccccc1N=Nc1ccc(NC(=O)c2ccnn2C)c(C)c1` [CH223191] was tested, and the “Th17-inducing effects of E. gallinarum (MLN Th17 cell frequency)” value (AhR) was “reverses”, the “Th17-inducing effects of E. gallinarum (MLN Th17 cell frequency)” value (AhR; [3]) was “abrogated” and the “autoantibodies-inducing effects of E. gallinarum (serum anti-RNA and anti-dsDNA IgG)” value (AhR) was “reverses”. The “autoantibodies-inducing effects of E. gallinarum (serum anti-RNA and anti-dsDNA IgG)” value (AhR; [3]) was “abrogated”.
`CC1(C)S[C@@H]2[C@H](NC(=O)[C@H](N)c3ccccc3)C(=O)N2[C@H]1C(=O)O` [ampicillin] was tested, and the “lupus-related autoantibodies (serum anti-dsDNA and anti-RNA IgG)” value ((NZWxBXSB)F1 mice [1]) was “prevented”, the Mortality ((NZWxBXSB)F1 mice [2]; single antibiotic in drinking water from 6 weeks of age, followed for 30 weeks or until death, FIG. 1A) was “prevented” and the “autoimmune manifestations (proteinuria, organ histology scores)” value ((NZWxBXSB)F1 mice [2]; single antibiotic in drinking water, FIG. 1D-1I) was “prevented”.
In the case of neomycin, the clinical outcomes ((NZWxBXSB)F1 mice [2]; neomycin 1.0 g/L in drinking water) is reported as “did not alter” and the “Translocation (bacterial growth in mesenteric veins, MLN, liver, spleen)” value (E. gallinarum) is reported as “only to a lesser degree”.
